These results are taken from patent US12122778B2, “Activating pyruvate kinase R” (Novo Nordisk Health Care AG, priority 2018, dated 2024).

One test has as its target PKR(R510Q) (Homo sapiens, UniProt P30613, R510Q). The test is described as follows: Luminescence Biochemical Assay (Kinase Glo Plus), PKR R510Q mutant. The note with it: without FBP; for activation at 1.54 µM: 1.54 μM compound, read-out: AC50 LUM KGP woFBP % Fold@1.54 μM mean; for AC50: read-out: AC50 LUM KGP woFBP AC50 μM gmean; for Emax: read-out: AC50 LUM KGP woFBP MAX % FOLD mean. (In Kinase-Glo more light means more ATP remaining.)

In another test the target is PKR(G332S) (Homo sapiens, UniProt P30613, G332S). The test is described as follows: Luminescence Biochemical Assay (Kinase Glo Plus), PKR G332S mutant. The note with it: with FBP; for activation at 1.54 µM: 1.54 μM compound, read-out: AC50 LUM KGP FBP % Fold@1.54 μM mean; for AC50: read-out: AC50 LUM KGP FBP AC50 μM gmean (column A); for Emax: read-out: AC50 LUM KGP FBP MAX % FOLD mean.
Sequence of PKR(G332S) (P30613 whole entry G332S): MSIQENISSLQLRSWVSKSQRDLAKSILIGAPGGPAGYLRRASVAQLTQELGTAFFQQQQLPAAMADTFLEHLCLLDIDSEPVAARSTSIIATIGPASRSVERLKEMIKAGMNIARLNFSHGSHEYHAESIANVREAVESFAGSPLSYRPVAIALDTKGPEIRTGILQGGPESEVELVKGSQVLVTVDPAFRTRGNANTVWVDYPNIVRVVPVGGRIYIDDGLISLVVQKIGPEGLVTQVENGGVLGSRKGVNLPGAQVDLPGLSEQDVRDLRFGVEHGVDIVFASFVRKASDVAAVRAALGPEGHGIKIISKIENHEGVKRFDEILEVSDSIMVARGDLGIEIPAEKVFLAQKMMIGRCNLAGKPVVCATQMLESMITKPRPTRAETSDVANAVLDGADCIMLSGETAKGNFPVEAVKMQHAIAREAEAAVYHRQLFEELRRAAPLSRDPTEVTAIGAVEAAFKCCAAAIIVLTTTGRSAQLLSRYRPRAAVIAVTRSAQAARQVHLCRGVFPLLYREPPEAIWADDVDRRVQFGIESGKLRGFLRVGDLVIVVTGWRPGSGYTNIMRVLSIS

Another test concerns the target PKR(wt) (Homo sapiens, UniProt P30613). Put plainly: Luminescence Biochemical Assay (Kinase Glo Plus), wild type PKR. The note with it: without FBP; for activation at 1.54 µM: 1.54 μM compound, read-out: AC50 LUM KGP woFBP % Fold@1.54 μM mean; for AC50: read-out: AC50 LUM KGP woFBP AC50 μM gmean; for Emax: read-out: AC50 LUM KGP woFBP MAX % FOLD mean.

Sequence of PKR(R510Q) (P30613 whole entry R510Q): as the sequence (P30613 whole entry G332S) above, with S332G, R510Q counted along it
Sequence of PKR(wt) (P30613 whole entry): as the sequence (P30613 whole entry G332S) above, with S332G counted along it

As for `O=C(OCC1CCOC1)N1CC2=C(C1)CN(S(=O)(=O)c1ccc(OC(F)F)cc1)C2` (stereo not drawn) [Example 22-3, Oxolan-3-ylmethyl 5-[4-(difluoromethoxy)benzenesulfonyl]-1H,2H,3H,4H,5H,6H-pyrrolo[3,4-c]pyrrole-2-carboxylate], on PKR(R510Q), the activation at 1.54 µM is 75 to 250%, the AC50 lay within 1 to 40 µM and the Emax fell in the range of 75 to 250%. At PKR(G332S), the activation at 1.54 µM was in the range of 75 to 250%, the AC50 lay within 1 to 40 µM and the Emax was 75 to 250%. Moreover, at PKR(wt), the activation at 1.54 µM fell in the range of 75 to 250%, the concentration at half-maximal activity (AC50) was in the range of 1 to 40 µM and the Emax lay within 75 to 250%.
As for `Cc1cc(COC(=O)N2CC3=C(C2)CN(S(=O)(=O)c2ccc(OC(F)F)cc2)C3)nn1C` [Example 22-4, (1,5-Dimethyl-1H-pyrazol-3-yl)methyl 5-[4-(difluoromethoxy)benzenesulfonyl]-1H,2H,3H,4H,5H,6H-pyrrolo[3,4-c]pyrrole-2-carboxylate], the activation at 1.54 µM on PKR(R510Q) fell in the range of 250 to 50000%; at PKR(G332S) it was 75 to 250%; at PKR(wt), 250 to 50000%. Besides, the results for the AC50 on PKR(R510Q), on PKR(G332S) and on PKR(wt) were 1 to 40 µM, 0.1 to 1 µM and 0.1 to 1 µM, respectively. Moreover, the Emax lay in the range of 250 to 500% at PKR(R510Q), 75 to 250% on PKR(G332S) and 250 to 500% at PKR(wt).
Regarding `Cc1cc(COC(=O)N2CC3=C(C2)CN(S(=O)(=O)c2ccc(OC(F)F)cc2)C3)no1` [Example 22-5, (5-Methyl-1,2-oxazol-3-yl)methyl-5-[4-(difluoromethoxy)benzenesulfonyl]-1H,2H,3H,4H,5H,6H-pyrrolo[3,4-c]pyrrole-2-carboxylate], at PKR(R510Q), the activation at 1.54 µM fell in the range of 250 to 50000%, the AC50 is 0.1 to 1 µM and the Emax lay within 250 to 500%. Moreover, at PKR(G332S), the activation at 1.54 µM was 75 to 250%, the AC50 fell in the range of 0.1 to 1 µM and the Emax is 75 to 250%. Moreover, at PKR(wt), the activation at 1.54 µM lay within 250 to 50000%, the AC50 lay in the range of 0.1 to 1 µM and the Emax fell in the range of 250 to 500%.

In general, AC50 refers to the concentration at which the activity in the assay is half-maximal.
